# Laboratory results from ChEMBL document CHEMBL2062394, “Azide-alkyne cycloaddition en route to novel 1H-1,2,3-triazole tethered isatin conjugates with in vitro cytotoxic evaluation” (Eur J Med Chem, 2012).
# System: Caco-2
# Assay: Growth inhibition of human Caco2 cells at 10 uM after 48 hrs by SRB assay
# Type: functional
# Conditions: Caco-2, 48 h, read-out: GI
row,Compound,inhibition of growth at 10 µM [%]
1,O=C1C(=O)N(CCn2cc(CN3C(=O)C(=O)c4cc([N+](=O)[O-])ccc43)nn2)c2ccc(Cl)cc21,17
2,O=C1C(=O)N(CCn2cc(CN3C(=O)C(=O)c4cc([N+](=O)[O-])ccc43)nn2)c2ccccc21,0
3,O=C1C(=O)N(CCn2cc(CN3C(=O)C(=O)c4cc(Br)ccc43)nn2)c2ccc(Cl)cc21,36

# System: A549
# Assay: Growth inhibition of human A549 cells after 48 hrs by SRB assay
# Type: functional, cell-based
# Conditions: not given
row,Compound,growth inhibition (GI)
1,O=C1C(=O)N(CCn2cc(CN3C(=O)C(=O)c4cc([N+](=O)[O-])ccc43)nn2)c2ccc(Cl)cc21,Dose-dependent effect
2,O=C1C(=O)N(CCn2cc(CN3C(=O)C(=O)c4cc([N+](=O)[O-])ccc43)nn2)c2ccccc21,Dose-dependent effect
3,O=C1C(=O)N(CCn2cc(CN3C(=O)C(=O)c4cc(Br)ccc43)nn2)c2ccc(Cl)cc21,Dose-dependent effect

# Same assay, conditions: A549, 48 h
row,IC50 [µM],Compound
1,39.3,O=C1C(=O)N(CCn2cc(CN3C(=O)C(=O)c4cc([N+](=O)[O-])ccc43)nn2)c2ccc(Cl)cc21
2,39.2,O=C1C(=O)N(CCn2cc(CN3C(=O)C(=O)c4cc([N+](=O)[O-])ccc43)nn2)c2ccccc21
3,42.2,O=C1C(=O)N(CCn2cc(CN3C(=O)C(=O)c4cc(Br)ccc43)nn2)c2ccc(Cl)cc21

# System: PC-3
# Assay: Growth inhibition of human PC3 cells at 100 uM after 48 hrs by SRB assay
# Type: functional
# Conditions: PC-3, 48 h, read-out: GI
row,Compound,inhibition of growth at 100 µM [%]
1,O=C1C(=O)N(CCn2cc(CN3C(=O)C(=O)c4cc([N+](=O)[O-])ccc43)nn2)c2ccc(Cl)cc21,72
2,O=C1C(=O)N(CCn2cc(CN3C(=O)C(=O)c4cc([N+](=O)[O-])ccc43)nn2)c2ccccc21,99
3,O=C1C(=O)N(CCn2cc(CN3C(=O)C(=O)c4cc(Br)ccc43)nn2)c2ccc(Cl)cc21,70

# System: Caco-2
# Assay: Growth inhibition of human Caco2 cells at 50 uM after 48 hrs by SRB assay
# Type: functional
# Conditions: Caco-2, 48 h, read-out: GI
row,Compound,inhibition of growth at 50 µM [%]
1,O=C1C(=O)N(CCn2cc(CN3C(=O)C(=O)c4cc([N+](=O)[O-])ccc43)nn2)c2ccc(Cl)cc21,21
2,O=C1C(=O)N(CCn2cc(CN3C(=O)C(=O)c4cc([N+](=O)[O-])ccc43)nn2)c2ccccc21,4
3,O=C1C(=O)N(CCn2cc(CN3C(=O)C(=O)c4cc(Br)ccc43)nn2)c2ccc(Cl)cc21,57

# System: THP-1
# Assay: Growth inhibition of human THP1 cells at 10 uM after 48 hrs by SRB assay
# Type: functional
# Conditions: THP-1, 48 h, read-out: GI
row,Compound,inhibition of growth at 10 µM [%]
1,O=C1C(=O)N(CCn2cc(CN3C(=O)C(=O)c4cc([N+](=O)[O-])ccc43)nn2)c2ccc(Cl)cc21,29
2,O=C1C(=O)N(CCn2cc(CN3C(=O)C(=O)c4cc([N+](=O)[O-])ccc43)nn2)c2ccccc21,11
3,O=C1C(=O)N(CCn2cc(CN3C(=O)C(=O)c4cc(Br)ccc43)nn2)c2ccc(Cl)cc21,28

# System: PC-3
# Assay: Growth inhibition of human PC3 cells at 50 uM after 48 hrs by SRB assay
# Type: functional
# Conditions: PC-3, 48 h, read-out: GI
row,Compound,inhibition of growth at 50 µM [%]
1,O=C1C(=O)N(CCn2cc(CN3C(=O)C(=O)c4cc([N+](=O)[O-])ccc43)nn2)c2ccc(Cl)cc21,44
2,O=C1C(=O)N(CCn2cc(CN3C(=O)C(=O)c4cc([N+](=O)[O-])ccc43)nn2)c2ccccc21,97
3,O=C1C(=O)N(CCn2cc(CN3C(=O)C(=O)c4cc(Br)ccc43)nn2)c2ccc(Cl)cc21,43

# System: A549
# Assay: Growth inhibition of human A549 cells at 100 uM after 48 hrs by SRB assay
# Type: functional
# Conditions: A549, 48 h, read-out: GI
row,Compound,inhibition of growth at 100 µM [%]
1,O=C1C(=O)N(CCn2cc(CN3C(=O)C(=O)c4cc([N+](=O)[O-])ccc43)nn2)c2ccc(Cl)cc21,99
2,O=C1C(=O)N(CCn2cc(CN3C(=O)C(=O)c4cc([N+](=O)[O-])ccc43)nn2)c2ccccc21,98
3,O=C1C(=O)N(CCn2cc(CN3C(=O)C(=O)c4cc(Br)ccc43)nn2)c2ccc(Cl)cc21,98

# System: Caco-2
# Assay: Growth inhibition of human Caco2 cells at 100 uM after 48 hrs by SRB assay
# Type: functional
# Conditions: Caco-2, 48 h, read-out: GI
row,Compound,inhibition of growth at 100 µM [%]
1,O=C1C(=O)N(CCn2cc(CN3C(=O)C(=O)c4cc([N+](=O)[O-])ccc43)nn2)c2ccc(Cl)cc21,33
2,O=C1C(=O)N(CCn2cc(CN3C(=O)C(=O)c4cc([N+](=O)[O-])ccc43)nn2)c2ccccc21,18
3,O=C1C(=O)N(CCn2cc(CN3C(=O)C(=O)c4cc(Br)ccc43)nn2)c2ccc(Cl)cc21,68

# System: PC-3
# Assay: Growth inhibition of human PC3 cells at 10 uM after 48 hrs by SRB assay
# Type: functional
# Conditions: PC-3, 48 h, read-out: GI
row,Compound,inhibition of growth at 10 µM [%]
1,O=C1C(=O)N(CCn2cc(CN3C(=O)C(=O)c4cc([N+](=O)[O-])ccc43)nn2)c2ccc(Cl)cc21,30
2,O=C1C(=O)N(CCn2cc(CN3C(=O)C(=O)c4cc([N+](=O)[O-])ccc43)nn2)c2ccccc21,24
3,O=C1C(=O)N(CCn2cc(CN3C(=O)C(=O)c4cc(Br)ccc43)nn2)c2ccc(Cl)cc21,29

# System: A549
# Assay: Growth inhibition of human A549 cells at 50 uM after 48 hrs by SRB assay
# Type: functional
# Conditions: A549, 48 h, read-out: GI
row,Compound,inhibition of growth at 50 µM [%]
1,O=C1C(=O)N(CCn2cc(CN3C(=O)C(=O)c4cc([N+](=O)[O-])ccc43)nn2)c2ccc(Cl)cc21,80
2,O=C1C(=O)N(CCn2cc(CN3C(=O)C(=O)c4cc([N+](=O)[O-])ccc43)nn2)c2ccccc21,96
3,O=C1C(=O)N(CCn2cc(CN3C(=O)C(=O)c4cc(Br)ccc43)nn2)c2ccc(Cl)cc21,83

# System: A549
# Assay: Growth inhibition of human A549 cells at 10 uM after 48 hrs by SRB assay
# Type: functional
# Conditions: A549, 48 h, read-out: GI
row,Compound,inhibition of growth at 10 µM [%]
1,O=C1C(=O)N(CCn2cc(CN3C(=O)C(=O)c4cc([N+](=O)[O-])ccc43)nn2)c2ccc(Cl)cc21,11
2,O=C1C(=O)N(CCn2cc(CN3C(=O)C(=O)c4cc([N+](=O)[O-])ccc43)nn2)c2ccccc21,13
3,O=C1C(=O)N(CCn2cc(CN3C(=O)C(=O)c4cc(Br)ccc43)nn2)c2ccc(Cl)cc21,10

# System: PC-3
# Assay: Growth inhibition of human PC3 cells after 48 hrs by SRB assay
# Type: functional, cell-based
# Conditions: not given
row,Compound,growth inhibition (GI)
1,O=C1C(=O)N(CCn2cc(CN3C(=O)C(=O)c4cc([N+](=O)[O-])ccc43)nn2)c2ccc(Cl)cc21,Dose-dependent effect
2,O=C1C(=O)N(CCn2cc(CN3C(=O)C(=O)c4cc([N+](=O)[O-])ccc43)nn2)c2ccccc21,Dose-dependent effect
3,O=C1C(=O)N(CCn2cc(CN3C(=O)C(=O)c4cc(Br)ccc43)nn2)c2ccc(Cl)cc21,Dose-dependent effect

# Same assay, conditions: PC-3, 48 h
row,IC50 [µM],Compound
1,53.2,O=C1C(=O)N(CCn2cc(CN3C(=O)C(=O)c4cc([N+](=O)[O-])ccc43)nn2)c2ccc(Cl)cc21
2,30.7,O=C1C(=O)N(CCn2cc(CN3C(=O)C(=O)c4cc([N+](=O)[O-])ccc43)nn2)c2ccccc21
3,51.4,O=C1C(=O)N(CCn2cc(CN3C(=O)C(=O)c4cc(Br)ccc43)nn2)c2ccc(Cl)cc21

# System: THP-1
# Assay: Growth inhibition of human THP1 cells at 50 uM after 48 hrs by SRB assay
# Type: functional
# Conditions: THP-1, 48 h, read-out: GI
row,Compound,inhibition of growth at 50 µM [%]
1,O=C1C(=O)N(CCn2cc(CN3C(=O)C(=O)c4cc([N+](=O)[O-])ccc43)nn2)c2ccc(Cl)cc21,82
2,O=C1C(=O)N(CCn2cc(CN3C(=O)C(=O)c4cc([N+](=O)[O-])ccc43)nn2)c2ccccc21,97
3,O=C1C(=O)N(CCn2cc(CN3C(=O)C(=O)c4cc(Br)ccc43)nn2)c2ccc(Cl)cc21,82

# System: THP-1
# Assay: Growth inhibition of human THP1 cells after 48 hrs by SRB assay
# Type: functional, cell-based
# Conditions: not given
row,Compound,growth inhibition (GI)
1,O=C1C(=O)N(CCn2cc(CN3C(=O)C(=O)c4cc([N+](=O)[O-])ccc43)nn2)c2ccc(Cl)cc21,Dose-dependent effect
2,O=C1C(=O)N(CCn2cc(CN3C(=O)C(=O)c4cc([N+](=O)[O-])ccc43)nn2)c2ccccc21,Dose-dependent effect
3,O=C1C(=O)N(CCn2cc(CN3C(=O)C(=O)c4cc(Br)ccc43)nn2)c2ccc(Cl)cc21,Dose-dependent effect

# Same assay, conditions: THP-1, 48 h
row,IC50 [µM],Compound
1,26,O=C1C(=O)N(CCn2cc(CN3C(=O)C(=O)c4cc([N+](=O)[O-])ccc43)nn2)c2ccc(Cl)cc21
2,42.8,O=C1C(=O)N(CCn2cc(CN3C(=O)C(=O)c4cc([N+](=O)[O-])ccc43)nn2)c2ccccc21
3,26.9,O=C1C(=O)N(CCn2cc(CN3C(=O)C(=O)c4cc(Br)ccc43)nn2)c2ccc(Cl)cc21

# System: THP-1
# Assay: Growth inhibition of human THP1 cells at 100 uM after 48 hrs by SRB assay
# Type: functional
# Conditions: THP-1, 48 h, read-out: GI
row,Compound,inhibition of growth at 100 µM [%]
1,O=C1C(=O)N(CCn2cc(CN3C(=O)C(=O)c4cc([N+](=O)[O-])ccc43)nn2)c2ccc(Cl)cc21,88
2,O=C1C(=O)N(CCn2cc(CN3C(=O)C(=O)c4cc([N+](=O)[O-])ccc43)nn2)c2ccccc21,100
3,O=C1C(=O)N(CCn2cc(CN3C(=O)C(=O)c4cc(Br)ccc43)nn2)c2ccc(Cl)cc21,90

# System: Caco-2
# Assay: Growth inhibition of human Caco2 cells after 48 hrs by SRB assay
# Type: functional, cell-based
# Conditions: not given
row,Compound,growth inhibition (GI)
1,O=C1C(=O)N(CCn2cc(CN3C(=O)C(=O)c4cc([N+](=O)[O-])ccc43)nn2)c2ccc(Cl)cc21,Dose-dependent effect
2,O=C1C(=O)N(CCn2cc(CN3C(=O)C(=O)c4cc([N+](=O)[O-])ccc43)nn2)c2ccccc21,Dose-dependent effect
3,O=C1C(=O)N(CCn2cc(CN3C(=O)C(=O)c4cc(Br)ccc43)nn2)c2ccc(Cl)cc21,Dose-dependent effect

# Same assay, conditions: Caco-2, 48 h
row,IC50 [µM],Compound
1,> 100,O=C1C(=O)N(CCn2cc(CN3C(=O)C(=O)c4cc([N+](=O)[O-])ccc43)nn2)c2ccc(Cl)cc21
2,> 100,O=C1C(=O)N(CCn2cc(CN3C(=O)C(=O)c4cc([N+](=O)[O-])ccc43)nn2)c2ccccc21
3,32.2,O=C1C(=O)N(CCn2cc(CN3C(=O)C(=O)c4cc(Br)ccc43)nn2)c2ccc(Cl)cc21
